{"source": "patent US20240082125A1", "about": "“USE OF A SHORT CHAIN FATTY ACID AS ANTIDANDRUFF AGENT” (NANYANG TECHNOLOGICAL UNIVERSITY, priority 2020, published 2024)", "key": {"C. acnes ATCC 6919": {"tested_on": "C. acnes ATCC 6919", "experiment": "C. acnes growth assay, colony forming units", "assay_type": "cell-based, Cutibacterium acnes", "details": "for C. acnes (log10 CFUs/ml): 50 mM, after 72 hours, replicates #1-#3; for growth of C. acnes: 30 mM, MBHI medium pH 7, anaerobic, FIG. 2", "method": "(§1) M. restricta ATCC MYA-4611, S. epidermidis ATCC 12228, and C. acnes ATCC 6919 were purchased from ATCC. M. restricta was routinely cultured in modified Dixon (MD) medium (pH 6), composed of 36 g of Malt extract (Sigma 70167), 20 g of Dessicated Oxbile (Sigma 70168), 6 g of Bacto™ Peptone (BD 211677), 1% (v/v) Tween 40 (Sigma P1504), 0.2% (v/v) Oleic Acid (Fluka 75096), and 0.2% (v/v) Glycerol (Promega H5433) in 1 liter of dH2O. C. acnes and S. epidermidis were cultured in modified brain heart infusion (MBHI) medium (pH 7), containing 37 g of BHI base (Accumedia 7116B), 0.4% (v/v) of Tween-40 (Sigma P1504), 0.2% (v/v) of Oleic acid (Fluka 75096), and 0.2% (v/v) of Glycerol (Promega H5433) in 1 liter of dH2O. M. restricta and S. epidermidis were routinely grown under aerobic conditions, shaken at 200 rpm, and C. acnes was grown under anaerobic conditions. All organisms were grown at 33° C. Wherever required, media was supplemented with: sodium acetate (CH3COOH, Sigma Ref. 32319), sodium propionate ([…], Sigma Ref. P1880), sodium butyrate (CH3(CH2)2COOH, Sigma Ref. 303410), valeric acid (CH3(CH2)3COOH, Fluka Ref. 75054). For valeric acid, the pH in modified cell media was neutralized with NaOH (Sodium hydroxide, Sigma 283060).\n(§2) M. restricta cells stored as glycerol stocks (30% glycerol in MD medium) were revived by plating on MD agar plates and incubated for 2-3 days at 33° C. A pre-culture was made from the lawn of cells grown on the agar plate. Cells from % of the plate was scrapped off, homogenized after suspending in 70 ml of MD medium in a 250 ml baffled erlenmeyer flask and incubated for 24 hours at 33° C. at 200 rpm. For experiments, 10^7 cell/ml was inoculated in fresh MD medium with or without the short chain fatty acids. Growth was monitored by measuring the cell density with SYTO 9 for up to 24 hours or 96 hours. C. acnes and S. epidermidis were inoculated into MBHI medium at starting cell density of OD600 0.05 and 0.25, respectively. Bacterial growth was measured by plating the serially diluted cultures on Brain Heart Infusion agar plates at different time points and colonies were counted after 72 hours for C. acnes and 24 hours for S. epidermidis.\n(§3) Bacterial growth was quantified by plating the serially diluted cultures on Brain Heart Infusion agar plates at different time points and colonies were counted after 72 hours for C. acnes and 24 hours for Staphylococcus sp.\n(§4) M. restricta ATCC MYA-4611, S. epidermidis ATCC 12228 and C. acnes ATCC 6919 were purchased from ATCC. M. restricta were routinely cultured in Modified Dixon (MD) medium (pH 6), composed of 36 g of Malt extract (Sigma 70167), 20 g of Dessicated Oxbile (Sigma 70168), 6 g of Bacto™ Peptone (BD 211677), 1% (v/v) Tween 40 (Sigma P1504), 0.2% (v/v) Oleic Acid (Fluka 75096), and 0.2% (v/v) Glycerol (Promega H5433) in 1 liter of dH2O. C. acnes and S. epidermidis were cultured in modified brain heart infusion (MBHI) medium (pH 7), containing 37 g of BHI base (Accumedia 7116B), 0.4% (v/v) of Tween-40 (Sigma P1504), 0.2% (v/v) of Oleic acid (Fluka 75096), and 0.2% (v/v) of Glycerol (Promega H5433) in 1 liter of dH2O. M. restricta and S. epidermidis were routinely grown under aerobic conditions, shaken at 200 rpm, and C. acnes was grown under anaerobic conditions. All organisms were grown at 33° C. Wherever required, media was supplemented with 50 mM of: sodium propionate (CH3CH2COOH, Sigma Ref. P1880), sodium butyrate (CH3(CH2)2COOH, Sigma Ref. 303410), valeric acid (CH3(CH2)3COOH, Fluka Ref. 75054). For valeric acid, the pH in modified cell media was neutralized with NaOH (Sodium hydroxide, Sigma 283060).\n(§5) M. restricta cells stored as glycerol stocks (30% glycerol in MD medium) were revived by plating on MD agar plates and incubated for 2-3 days at 33° C. A pre-culture was made from the lawn of cells grown on the agar plate."}, "[1]": {"tested_on": "M. restricta ATCC MYA-4611", "experiment": "M. restricta growth assay, total cell numbers by SYTO9 fluorescence", "assay_type": "cell-based, Malassezia restricta", "details": "for M. restricta (log10 total cell counts): 50 mM, after 72 hours, SYTO9, starting density 1×10^7 cells/ml, replicates #1-#3; for growth of Malassezia restricta: 30 mM, MD medium pH 6, FIG. 1", "method": "as §1\nM. restricta cells from 1 ml of the culture were harvested by centrifugation at 10,000×g for 5 minutes at room temperature. Cells were washed once, pelleted, and re-suspended in 0.9% NaCl solution. Equal volumes of the above cell suspension and SYTO 9 working stock (3 ul SYTO 9 component of the Live/Dead BacLight bacterial viability kit, ThermoFisher Scientific, L7012, diluted in 1 ml of 0.9% NaCl solution) were mixed well, incubated in dark for 10 minutes, and fluorescent intensity unit was measured in a Tecan microplate reader with excitation/emission wavelengths of 485/530 nm. A standard for correlation of fluorescence units and concentration was prepared using a fluorimeter and hemocytometer under a light microscope. This standard curve was used to calculate the total cell numbers.\nas §2\nas §4, with “C.” for “C. Wherever required, media was supplemented with 50 mM of: sodium propionate (CH3CH2COOH, Sigma Ref. P1880), sodium butyrate (CH3(CH2)2COOH, Sigma Ref. 303410), valeric acid (CH3(CH2)3COOH, Fluka Ref. 75054). For valeric acid, the pH in modified cell media was neutralized with NaOH (Sodium hydroxide, Sigma 283060).”"}, "[2]": {"tested_on": "S. epidermidis ATCC 12228", "experiment": "S. epidermidis growth assay, colony forming units", "assay_type": "cell-based, Staphylococcus epidermidis", "details": "for S. epidermidis (log10 CFUs/ml): 50 mM, after 24 hours, replicates #1-#3; for growth of S. epidermidis: 30 mM, MBHI medium pH 7, aerobic, FIG. 3", "method": "as §1, §2, §3, §4, §5"}, "[3]": {"tested_on": "M. restricta ATCC MYA-4611", "experiment": "M. restricta cell viability by ATP estimation (BacTiterGlo)", "assay_type": "cell-based, Malassezia restricta", "details": "50 mM, ATP in lysate of 24 hours grown cells, replicates #1-#3", "method": "M. restricta ATCC MYA-4611, S. epidermidis ATCC 12228 and C. acnes ATCC 6919 were purchased from ATCC. M. restricta were routinely cultured in Modified Dixon (MD) medium (pH 6), composed of 36 g of Malt extract (Sigma 70167), 20 g of Dessicated Oxbile (Sigma 70168), 6 g of Bacto™ Peptone (BD 211677), 1% (v/v) Tween 40 (Sigma P1504), 0.2% (v/v) Oleic Acid (Fluka 75096), and 0.2% (v/v) Glycerol (Promega H5433) in 1 liter of dH2O. C. acnes and S. epidermidis were cultured in modified brain heart infusion (MBHI) medium (pH 7), containing 37 g of BHI base (Accumedia 7116B), 0.4% (v/v) of Tween-40 (Sigma P1504), 0.2% (v/v) of Oleic acid (Fluka 75096), and 0.2% (v/v) of Glycerol (Promega H5433) in 1 liter of dH2O. […]\nM. restricta cells stored as glycerol stocks (30% glycerol in MD medium) were revived by plating on MD agar plates and incubated for 2-3 days at 33° C. […] Growth was monitored by measuring the cell density with SYTO 9 or by estimating the ATP concentration (see below) for up to 24 hours or 96 hours. […] Bacterial growth was measured by plating the serially diluted cultures on Brain Heart Infusion agar plates at different time points and colonies were counted after 72 hours for C. acnes and 24 hours for S. epidermidis.\nCellular ATP was measured using the BacTiterGlo Microbial cell viability (Promega) kit following manufacturers protocol. […]"}}, "note": "“And” between values parts separate entries of the source, which are not always exact repeats. Identical values can stand only once."}
{"smiles": "CCCCCC(=O)OCC", "note": "[EH_Cpo, ethyl caproate]", "values": [{"measurement": "C. acnes (log10 CFUs/ml)", "setting": "C. acnes ATCC 6919", "value": "9.94 log10 CFUs/ml and 8.47 log10 CFUs/ml and 8.00 log10 CFUs/ml"}, {"measurement": "M. restricta (log10 total cell counts)", "setting": "[1]", "value": "6.80 log10 total cell counts and 6.69 log10 total cell counts and 6.74 log10 total cell counts"}, {"measurement": "S. epidermidis (log10 CFUs/ml)", "setting": "[2]", "value": "5.55 log10 CFUs/ml and 5.54 log10 CFUs/ml and 5.66 log10 CFUs/ml"}]}
{"smiles": "CCCCCCCC(=O)O", "note": "[Cpy, caprylic acid]", "values": [{"measurement": "C. acnes (log10 CFUs/ml)", "setting": "C. acnes ATCC 6919", "value": 0.00, "unit": "log10 CFUs/ml"}, {"measurement": "M. restricta (log10 total cell counts)", "setting": "[1]", "value": "6.98 log10 total cell counts and 6.91 log10 total cell counts and 6.84 log10 total cell counts"}, {"measurement": "S. epidermidis (log10 CFUs/ml)", "setting": "[2]", "value": "3.34 log10 CFUs/ml and 3.03 log10 CFUs/ml and 3.00 log10 CFUs/ml"}]}
{"smiles": "CCC(=O)[O-].CCC(=O)[O-].[Zn+2]", "note": "[Zn_Pro, zinc propionate]", "values": [{"measurement": "C. acnes (log10 CFUs/ml)", "setting": "C. acnes ATCC 6919", "value": 0.00, "unit": "log10 CFUs/ml"}, {"measurement": "M. restricta (Relative luminescence units)", "setting": "[3]", "value": "12500 Relative luminescence units and 11900 Relative luminescence units and 10300 Relative luminescence units"}, {"measurement": "S. epidermidis (log10 CFUs/ml)", "setting": "[2]", "value": "5.00 log10 CFUs/ml and 5.05 log10 CFUs/ml and 0.00 log10 CFUs/ml"}]}
{"smiles": "CCCC(=O)[O-].[Na+]", "note": "[NaB, sodium butyrate]", "values": [{"measurement": "growth of C. acnes", "setting": "C. acnes ATCC 6919", "value": "do not affect"}, {"measurement": "C. acnes (log10 CFUs/ml)", "setting": "C. acnes ATCC 6919", "value": "8.26 log10 CFUs/ml and 8.10 log10 CFUs/ml and 8.34 log10 CFUs/ml"}, {"measurement": "growth of Malassezia restricta", "setting": "[1]", "value": "completely inhibit"}, {"measurement": "M. restricta (log10 total cell counts)", "setting": "[1]", "value": "6.94 log10 total cell counts and 6.88 log10 total cell counts (2×)"}, {"measurement": "growth of S. epidermidis", "setting": "[2]", "value": "do not affect"}, {"measurement": "S. epidermidis (log10 CFUs/ml)", "setting": "[2]", "value": "9.15 log10 CFUs/ml and 8.87 log10 CFUs/ml and 8.90 log10 CFUs/ml"}]}
{"smiles": "CCCCCC(=O)O", "note": "[Cpo, caproic acid]", "values": [{"measurement": "C. acnes (log10 CFUs/ml)", "setting": "C. acnes ATCC 6919", "value": "8.29 log10 CFUs/ml and 8.26 log10 CFUs/ml and 8.41 log10 CFUs/ml"}, {"measurement": "M. restricta (log10 total cell counts)", "setting": "[1]", "value": "6.93 log10 total cell counts and 6.95 log10 total cell counts and 6.87 log10 total cell counts"}, {"measurement": "S. epidermidis (log10 CFUs/ml)", "setting": "[2]", "value": "7.64 log10 CFUs/ml and 7.67 log10 CFUs/ml and 7.57 log10 CFUs/ml"}]}
{"smiles": "CCCCCCCC(=O)OCC(O)CO", "note": "(stereo not shown) [GM_Cpy, glyceryl mono caprylate]", "values": [{"measurement": "C. acnes (log10 CFUs/ml)", "setting": "C. acnes ATCC 6919", "value": 0.00, "unit": "log10 CFUs/ml"}, {"measurement": "M. restricta (Relative luminescence units)", "setting": "[3]", "value": "16700 Relative luminescence units and −1470 Relative luminescence units and −2030 Relative luminescence units"}, {"measurement": "S. epidermidis (log10 CFUs/ml)", "setting": "[2]", "value": 0.00, "unit": "log10 CFUs/ml"}]}
{"smiles": "CCCCC(=O)[O-].[Na+]", "note": "[NaV, sodium valerate]", "values": [{"measurement": "growth of C. acnes", "setting": "C. acnes ATCC 6919", "value": "do not affect"}, {"measurement": "C. acnes (log10 CFUs/ml)", "setting": "C. acnes ATCC 6919", "value": "8.90 log10 CFUs/ml and 8.03 log10 CFUs/ml and 8.00 log10 CFUs/ml"}, {"measurement": "growth of Malassezia restricta", "setting": "[1]", "value": "completely inhibit"}, {"measurement": "M. restricta (log10 total cell counts)", "setting": "[1]", "value": "6.86 log10 total cell counts and 6.92 log10 total cell counts and 6.93 log10 total cell counts"}, {"measurement": "growth of S. epidermidis", "setting": "[2]", "value": "do not affect"}, {"measurement": "S. epidermidis (log10 CFUs/ml)", "setting": "[2]", "value": "8.90 log10 CFUs/ml and 9.29 log10 CFUs/ml and 9.08 log10 CFUs/ml"}]}
{"smiles": "CC(=O)[O-].[Na+]", "note": "[acetate, sodium acetate]", "values": [{"measurement": "growth of Malassezia restricta", "setting": "[1]", "value": "No effect"}]}
